We go through one compound from patent US20260183396A1, “CXCR3 OVEREXPRESSION IN CAR-NK CELLS PRIMES MIGRATION/HOMING INTO THE TUMOR MICROENVIRONMENT” (DANA-FARBER CANCER INSTITUTE, INC., priority 2022, published 2026).

One test has as its system MPM PDOTS. Put plainly: PDOTS live/dead quantification ex vivo. The class given is cell-based.
For a further test, the system named is IRF3. Put plainly: IRF3 immunofluorescence in PDOTS. Type of test: cell-based, human. Particulars: PDOTS following treatment. The method, then: PDOTS immunofluorescence and live/dead quantification. Dual labeling was performed by loading microfluidic devices with Nexcelom ViaStain acridine orange/propidium iodide (AO/PI) Staining Solution (Nexcelom, CS2-0106) or 10 μg/mL solution of Hoechst 33342 (Thermo Fisher Scientific) and 1 μg/mL solution of PI (Thermo Fisher Scientific). Following incubation with the dyes (20 minutes at room temperature in the dark for AO/PI or 45 minutes for Hoechst 33342/PI), images were captured using 4× objective of a Nikon Eclipse 80i fluorescence microscope equipped with automated motorized stage (Proscan), Z-stack (Prior), and Zyla 5.5 sCMOS camera (Andor). Image capture and analysis were performed using NIS-Elements AR software package. Live and dead cell quantitation was performed by measuring total cell area of each dye. For additional immunofluorescence studies, PDOTS were washed with PBS and blocked with FcR blocking reagent (Miltenyi) for 30 minutes at room temperature. Directly conjugated antibodies CD326 EpCAM-AlexaFluor647 (clone 9C4), CD45-AlexaFluor647 (HI30) (BioLegend), and mesothelin-PE (clone REA1057, Miltenyi) were diluted 1:50 in 10 μg/mL solution of Hoechst 33342 (Thermo Fisher Scientific) in PBS and loaded into microfluidic devices for 1-hour incubation at room temperature in the dark. Spheroids were washed twice with PBS with 0.1% Tween20 followed by PBS. […]

Another test deals with STING. Put plainly: STING pathway activation / CXCL10 ELISA in MPM cell lines. The class given is cell-based, human. To be noted: multiple MPM cell lines treated in vitro. As for the experimental part: Cytokine analysis. CXCL10 ELISA (R&D Systems DIP100) and granzyme B ELISA (R&D systems DY008) were performed according to manufacturer's instructions on conditioned media collected from cell culture. Cytokine analysis of conditioned media after 3 days of explant (S1) culture (FIG. 9B) utilized the MSD U-PLEX Viral Combo 1 assay (Hu: K15343K-2), which was performed according to manufacturer's instructions.
Cell culture. MPM cell lines were cultured in RPMI-1640 (Thermo Fisher Scientific) supplemented with 10% FBS (Gemini Bio-products). H226, H28, MSTO-211H, H2452 and H2052 were purchased from ATCC. MS428 was provided by the Richards Lab. H2461 and H2591 were provided to Dr. Janne by the NIH (Pass et al., Ann. Thorac. Surg. 59:835-44 (1995)). JMN1B (Demetri et al., Blood 74:940-6 (1989)) and MS589 (Gordon et al., Am. J. Pathol. 166:1827-40 (2005)) were derived at BWH/DFCI and shared internally with permission. All experiments were performed before reaching 10 passages. Mycoplasma infection was regularly checked by PCR using the conditioned media derived from each cell line with primers as previously described (Kitajima et al., Cancer Discov. 9:34-45 (2019)).
Immunoblotting. Cells were lysed in RIPA buffer containing 1× protease inhibitors (Roche 11-836-145-001) and phosphatase inhibitors (50 mmol/L NaF and 100 mmol/L Na3VO4). […]
(In general: An ELISA detects its analyte on a solid surface through an enzyme-linked reagent.)

The test system of the next test is MPM cell lines. The test can be described thus: NK cell killing assay. The class given is cell-based, human. Particulars: NK co-culture, only with MPM cells expressing STING. The method, then: NK cell killing assay. Target cells (MPM cell lines) were detached via trypsinization, labelled with CellTrace Violet (CTV, LifeTechnologies) and then seeded in a 96-well plate at a cell density of 25,000 cells per well. […] After 6 hours of co-culture, the cells were harvested and incubated with an antibody for the apoptosis marker Annexin V (PE) and the live/dead stain 7-AAD (Biolegend). Cells were analyzed on a BD LSRFortessa with FACSDiva software (BD Biosciences). Data were analyzed using FlowJo software version 10.5.3. The apoptotic cells were evaluated by gating on the CTV+ population and represented as percentage live or dead (late apoptotic) cells. Apoptotic cell analysis was conducted using NK cells extracted from as many as 4 different healthy donors per target MPM cell line to incorporate baseline donor variability.

For a further test, the system named is NK cells. Put plainly: Autophagy staining (CYTO-ID). The class given is cell-based, human. Particulars: NK cells following ADU-S100 treatment. As for the experimental part:
Autophagy Staining. Autophagy was assessed by vacuole staining to identify autophagolysosomes using the CYTO-ID Autophagy detection kit 2.0 (Enzo ENZ-51031-0050) according to manufacturer's instructions. Briefly, 5×10^5 isolated primary NK cells or TILs were incubated in T-cell growth media (TCGM) with 500 U/mL IL-2, which was refreshed every time the media was changed to ensure proper growth and selection. CLQ from the kit (Enzo 51005-CLQ) was used starting at the recommended initial dose of 10 μM compared with DMSO control. […] The media was collected, and flow cytometry was performed after staining following manufacturer's instructions with CYTO-ID Green Detection Reagent 2.

Protocol for MPM PDOTS: Patient-derived organotypic tumor spheroids (PDOTS). […] Briefly, fresh tumor specimens were minced in a 15 mL falcon tube in prewarmed to 37° C. full media (DMEM from Thermo Fisher Scientific+10% FBS)+100 U/mL collagenase type IV (Life Technologies) and 50 μg/mL dNase I (Roche) for approximately 20 minutes using sterile scissors and pipetting. Dissociated material was strained over 100-μm filter and 40-μm filters to generate S1 (>100 μm), S2 (40-100 μm), and S3 (<40 μm) spheroid fractions, which were subsequently maintained in ultralow-attachment (ULA) tissue culture plates (Corning). […] S2 fractions were used for ex vivo culture by resuspending them in type I rat tail collagen (Corning) at a concentration of 2.8 mg/mL prior to loading into the center gel region of the 3-D microfluidic culture device (AIM Biotech) and incubation for 40 minutes at 37° C. in humidity chambers to allow for polymerization. […]
PDOTS immunofluorescence and live/dead quantification. […] Following incubation with the dyes (20 minutes at room temperature in the dark for AO/PI or 45 minutes for Hoechst 33342/PI), images were captured using 4× objective of a Nikon Eclipse 80i fluorescence microscope equipped with automated motorized stage (Proscan), Z-stack (Prior), and Zyla 5.5 sCMOS camera (Andor). […] Live and dead cell quantitation was performed by measuring total cell area of each dye.

Regarding `Nc1ncnc2c1ncn2[C@@H]1O[C@@H]2COP(=O)([S-])O[C@@H]3[C@H](O)[C@@H](COP([O-])(=S)O[C@H]2[C@H]1O)O[C@H]3n1cnc2c(N)ncnc21.[Na+].[Na+]` (stereo partly drawn) [ADU-S100], the “specimens approximating clinical criteria for response with >30% decrease in cell area, p<0.05” value with MPM PDOTS (35 MPM patient specimens ex vivo) was determined as 7 specimens. Moreover, the “primary NK cell response in MPM PDOTS” value with MPM PDOTS (combined treatment with primary NK cells, cells from 2 out of 3 donors) is given as “significantly enhanced”. Further, the IRF3 localisation result with IRF3 is reported as “nuclear translocation”. Besides, the “STING pathway activation, CXCL10 secretion” value in the test on STING is listed as “potent pathway activation”. Further, in the test on MPM cell lines, the “apoptosis of tumor cells” value is given as “enhanced”. Besides, in the test with NK cells, the autophagic flux result is given as “elevated”.
